Measurements as given in patent US20190209506A1, “METHODS OF REDUCING OR PREVENTING OXIDATION OF LDL OR LIPID MEMBRANES IN A SUBJECT IN NEED THEREOF” (Amarin Pharmaceuticals Ireland Limited, priority 2018, published 2019).

What was measured:
[1] = Glucose-induced membrane lipid peroxidation (LOOH, CHOD-iodide assay) in DLPC/cholesterol vesicles (Examples 4, 5); assay type: biochemical; conditions: 1.0 μM; glucose 200 mg/dL; 96 hours
Description: All test compounds were further diluted in ethanol or aqueous buffer as needed. Glucose was prepared in saline buffer (0.5 mM HEPES, 154 mM NaCl, pH 7.3) at 11.0 mM (200 mg/dL). CHOD-iodide color reagent (stock) was prepared, with slight modification, as described by from El-Saadani et al. (J. […] Samples were shell-dried under nitrogen gas and placed under vacuum for 1 h to remove residual solvent. […] Lipid suspensions were then vortexed for 3 min at ambient temperature to form MLVs. All MLV samples were subjected to time-dependent autoxidation by incubating at 37° C. in an uncovered, shaking water bath. This method allows lipid peroxidation to occur gradually without requiring the use of exogenous initiators. Small aliquots (5-100 μL) of each sample were removed, immediately following MLV preparation (0 hour) and after exposing samples to oxidative conditions for 72 or 96 hour, and combined with 1.0 mL of activated CHOD-iodide color reagent. Aliquot volume was reduced with each successive time point to ensure that spectrophotometric readings were within the optimal adsorption range. Test samples were covered and incubated in darkness at room temperature for at least 4 hr. Sample absorbances were then measured against a CHOD blank at 365 nm using a Beckman DU-640 spectrophotometer. The CHOD colorimetric assay is based on the oxidation of iodide (I^−) by lipid hydroperoxide (LOOH) to form triiodide the quantity of which is directly proportional to the amount of LOOH present in the lipid sample. The molar absorptivity (ε) of I3^− is 2.46×10^4 M^−1 cm^−1 at 365 nm. […] All MLV samples were subjected to time-dependent autoxidation by incubating at 37° C. in an uncovered, shaking water bath. This method allows lipid peroxidation to occur gradually without requiring the use of exogenous initiators. Small aliquots (5-100 μL) of each sample were removed, immediately following MLV preparation (0 hr) and after exposing samples to oxidative conditions for 72 or 96 hr, and combined with 1.0 mL of activated CHOD-iodide color reagent. Aliquot volume was reduced with each successive time point to ensure that spectrophotometric readings were within the optimal adsorption range. Test samples were covered and incubated in darkness at room temperature for at least 4 hr. Sample absorbances were then measured against a CHOD blank at 365 nm using a Beckman DU-640 spectrophotometer. […] The molar absorptivity (ε) of I3^− is 2.46×10^4 M^−1 cm^−1 at 365 nm.

human sdLDL = assay: Copper-induced sdLDL oxidation, TBARS (Example 7); assay type: biochemical
Description: An experiment to study the antioxidant effect of EPA in LDL and small dense LDL (“sdLDL”) was performed. LDL and sdLDL were isolated from the plasma of healthy volunteers by iodixanol density gradient ultracentrifugation, and adjusted to a final apolipoprotein concentration of 2 mg/mL. […] Lipid oxidation was initiated with 10 μM CuSO4 and monitored by the colorimetric detection of thiobarbituric acid reactive substances (TBARS) for 1 hr. Vitamin E was also incubated with sample aliquots as a positive control.

human LDL = assay: Copper-induced oxidation of unfractionated LDL, TBARS (Example 7); assay type: biochemical; conditions: 1 hour
Description: An experiment to study the antioxidant effect of EPA in LDL and small dense LDL (“sdLDL”) was performed. LDL and sdLDL were isolated from the plasma of healthy volunteers by iodixanol density gradient ultracentrifugation, and adjusted to a final apolipoprotein concentration of 2 mg/mL. […] Vitamin E was also incubated with sample aliquots as a positive control.

[2] = test system: rat renal glomerular endothelial cells; assay: NO and ONOO^− release ex vivo from glomerular endothelial cells exposed to oxLDL and high glucose (Example 13); assay type: cell-based; conditions: 10.0 μM, 1 hr; oxLDL 11 mg/dL and glucose 300 mg/dL; vs vehicle
Description: Healthy male Wistar Kyoto (WKY) rats, aged 7-9 weeks and weighing 250±20 g, were obtained from inbred colonies (National Institutes of Health, Bethesda, Md.). Animals were housed in a controlled environment that provided food and water ad libitum prior to the study. […] Animals were sacrificed and tissue samples obtained immediately for experimentation. All procedures were conducted in accordance with standard Institutional Animal Care and Use Committee guidelines and conformed to the Guide for the Care and Use of Laboratory Animals published by the US National Institutes of Health.
Immediately after sacrificing the rats, kidneys were removed, cut into 100 μm sections and transferred to a separate organ chamber containing Dulbecco's phosphate buffered saline ([…]) and […] at pH 7.4. […]
The NO/ONOO− nanosensor was positioned near the surface of the endothelial cells using a computer-controlled M3301 micromanipulator (x-y-z resolution of 0.2 μm) and microscope (both from World Precision Instruments, Berlin, Germany) fitted with a CD camera. Each analyte was measured from amperograms and standard calibration curves collected under maximum current. […] Changes in current (proportional to the molar concentrations of NO or ONOO^− released) were monitored continuously immediately following CaI stimulation.

HMG-CoA reductase = biological target: T1, HMG-CoA reductase (Homo sapiens, UniProt P04035); conditions: metabolized by hepatic cytochrome P450; cited from earlier work
T1 sequence (P04035 1-888): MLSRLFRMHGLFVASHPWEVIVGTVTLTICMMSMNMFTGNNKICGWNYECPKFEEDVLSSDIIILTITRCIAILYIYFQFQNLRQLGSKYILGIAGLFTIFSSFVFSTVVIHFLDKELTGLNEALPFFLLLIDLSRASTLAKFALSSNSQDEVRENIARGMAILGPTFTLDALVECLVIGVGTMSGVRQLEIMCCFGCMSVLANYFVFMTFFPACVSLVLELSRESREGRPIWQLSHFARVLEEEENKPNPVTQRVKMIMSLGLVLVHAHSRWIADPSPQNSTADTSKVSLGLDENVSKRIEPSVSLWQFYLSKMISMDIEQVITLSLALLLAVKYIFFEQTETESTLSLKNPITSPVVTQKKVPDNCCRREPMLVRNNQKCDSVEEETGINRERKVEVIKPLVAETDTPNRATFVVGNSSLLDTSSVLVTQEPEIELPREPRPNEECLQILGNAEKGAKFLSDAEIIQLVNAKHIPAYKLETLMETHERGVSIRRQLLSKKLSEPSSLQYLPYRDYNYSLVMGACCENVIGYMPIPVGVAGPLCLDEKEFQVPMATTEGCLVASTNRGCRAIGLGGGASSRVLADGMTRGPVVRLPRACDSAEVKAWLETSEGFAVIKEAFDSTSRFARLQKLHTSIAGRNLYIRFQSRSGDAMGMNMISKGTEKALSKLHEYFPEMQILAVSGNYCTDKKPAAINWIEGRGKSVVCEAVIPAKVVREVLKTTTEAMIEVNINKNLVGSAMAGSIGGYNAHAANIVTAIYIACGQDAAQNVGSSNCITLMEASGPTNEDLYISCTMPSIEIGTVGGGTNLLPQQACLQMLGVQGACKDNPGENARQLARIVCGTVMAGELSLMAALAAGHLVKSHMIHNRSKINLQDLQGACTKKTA

## CC(C)c1c(C(=O)Nc2ccccc2O)c(-c2ccccc2)c(-c2ccc(F)cc2)n1CC[C@@H](O)C[C@@H](O)CC(=O)O [ATM, Atorvastatin ortho- (o-) hydroxy (active) metabolite]
[1]
  antioxidant effect (LOOH formation): separate and potent antioxidant effects
Human sdLDL; 0.5 μM, 1 hr
  inhibition of sdLDL oxidation: 5±5%
Human sdLDL; 1.0 μM, 1 hr, vs vehicle
  inhibition of sdLDL oxidation: 18±5%
Human sdLDL; highest dose, 1 hr
  inhibition of sdLDL oxidation: 90±2%
Human LDL
  effect on unfractionated LDL oxidation, dose dependence: significant and dose-dependent inhibition of unfractionated LDL oxidation beginning at 1.0 μM
[2]
  increase of NO release: 205%
  reduction of ONOO^− release: 25%

## CC(C)c1c(C(=O)Nc2ccccc2)c(-c2ccccc2)c(-c2ccc(F)cc2)n1CC[C@@H](O)C[C@@H](O)CC(=O)O [atorvastatin]
Human sdLDL; 10 μM, 1 hour
  effect on sdLDL oxidation compared to vehicle-treated controls: did not have any significant antioxidant activity
Human sdLDL; 10 μM, 1 hr, vs vehicle
  inhibition of TBARS formation / sdLDL oxidation: 0.1±7%
Human LDL; 10 μM
  effect on unfractionated LDL oxidation: did not have any significant antioxidant activity
HMG-CoA reductase
  share of circulating HMG-CoA reductase inhibitory activity accounted for by active metabolites: approximately 70%
